Data on 24 compounds can be found in patent US20250120961A1, “P53 MODULATORS” (Nested Therapeutics, Inc., priority 2023, published 2025).

The assay deals with His-tagged p53-Y220C DNA binding domain (Homo sapiens, UniProt P04637, Y220C). Description: Biochemical p53-Y220C and DNA binding assay (HTRF). The conditions noted are these: inflection point of 10 points dose titration, 4 parameter curve fit; p53-Y220C DBD 100 nM, biotinylated dsDNA 200 nM, 27 to 29° C.; read-out: HTRF IP. From the text: Biological Example 1. Biochemical p53-Y220C and DNA Binding Assay
The compounds of this invention can bind to p53-Y220C and increase the ability of the mutant p53 to bind to DNA at higher temperatures. His-tagged p53-Y220C DNA binding domain containing amino acid 94-312 is used to measure DNA binding activities in vitro with the sequence described below. (SEQ ID NO: 1: […]. Biotin labeled double strand DNA (dsDNA) containing consensus p53 binding sequence (SEQ ID NO: 2: Forward: 5′-(biotin)-[…]-3′; Reverse: 5′-(biotin)-[…]-3′) is used to measure protein-DNA binding activities. Compounds, His-tagged p53-Y220C DBD proteins (100 nM), and biotinylated dsDNA (200 nM) were mixed in ice-cold assay buffer containing DPBS, 20 mM NaCl, and 0.5% BAS, and incubated at 4° C. overnight in 384-well plate. Plates were transferred to incubator at 27 to 29° C. with constant shaking for 60 minutes. Equal volume of Homogeneous Time-Resolved Fluorescence (HTRF) dyes containing mAb anti-6HIS Tb cryptate gold and d2 labeled streptavidin in the assay buffer was added to each well and incubated at 27 to 29° C. with constant shaking for 60 minutes. The plate was read using Envision multimode plate reader. Reference compound 1 was used as high control and DMSO was used as low control. The percentage activation (A %) of protein-DNA binding by compounds was normalized by setting up high control (reference compound) as […] and low control (DMSO) as 0% (A %=(HTRF ratio of compound-HTRF ratio of low control)/(HTRF ratio of high control-HTRF ratio of low control)*500). 10 points dose titration curves for each compound were analyzed by 4 parameter curve fit and inflection point (IP) was reported. Reference compound 1 is shown below Table 1. Compounds of the invention are active in the HTRF assay. Data in Table 1 collected using Biological Example 1.
As for `CN1CC[C@@H](Nc2cccc3c(CC(F)(F)F)c(/C=C/C(O)c4cnn(C)c4)sc23)[C@@H](F)C1` (stereo partly drawn) [Example 5-5], the EC50 is 100 to 1000 nM.

In the case of `OC1(CO/N=C/c2sc3c(N[C@@H]4CNC[C@@H]4F)cccc3c2CC(F)(F)F)CCCC1` [Example 1-14, (E)-7-(((3R,4S)-4-fluoropyrrolidin-3-yl)amino)-3-(2,2,2-trifluoroethyl)benzo[b]thiophene-2-carbaldehyde O-((1-hydroxycyclopentyl)methyl) oxime], the EC50 lay in the range of 100 to 1000 nM.

For `CNC(=O)CO/N=C/c1cc2c(N[C@@H]3CCN(C)C[C@@H]3F)cccc2n1CC(F)(F)F` [Example 2-7, 2-((((E)-(4-(((3S,4R)-3-fluoro-1-methylpiperidin-4-yl)amino)-1-(2,2,2-trifluoroethyl)-1H-indol-2-yl)methylene)amino)oxy)-N-methylacetamide], the EC50 is more than 1000 nM.

Take `F[C@H]1CNC[C@H]1Nc1cccc2c(CC(F)(F)F)c(/C=N/OCc3ccccn3)sc12` [Example 3-3, (E)-7-(((3R,4S)-4-fluoropyrrolidin-3-yl)amino)-3-(2,2,2-trifluoroethyl)benzo[b]thiophene-2-carbaldehyde O-pyridin-2-ylmethyl oxime]: the EC50 fell in the range of 100 to 1000 nM.

For `F[C@H]1CNC[C@H]1Nc1cccc2c(CC(F)(F)F)c(/C=N/OC3CCCC3)sc12` [Example 2-17, (E)-7-(((3R,4S)-4-fluoropyrrolidin-3-yl)amino)-3-(2,2,2-trifluoroethyl)benzo[b]thiophene-2-carbaldehyde O-cyclopentyl oxime], the EC50 lay in the range of 100 to 1000 nM.

Turning to `OC(/C=C/c1sc2c(N[C@@H]3CNC[C@@H]3F)cccc2c1CC(F)(F)F)c1ccccn1` (stereo partly drawn) [Example 5-1, (E)-3-(7-(((3R,4S)-4-fluoropyrrolidin-3-yl)amino)-3-(2,2,2-trifluoroethyl)benzo[b]thiophen-2-yl)-1-(pyridin-2-yl)prop-2-en-1-ol], the EC50 is more than 1000 nM.

Regarding `CN1CC[C@@H](Nc2cccc3c(CC(F)(F)F)c(/C=C/CNS(C)(=O)=O)sc23)[C@@H](F)C1` [Example 6-3, N-((E)-3-(7-(((3S,4R)-3-fluoro-1-methylpiperidin-4-yl)amino)-3-(2,2,2-trifluoroethyl)benzo[b]thiophen-2-yl)allyl)methanesulfonamide], the EC50 lay within 100 to 1000 nM.

Take `CN1CC[C@@H](Nc2cccc3c(CC(F)(F)F)c(/C=N/OCc4cccc(=O)[nH]4)sc23)[C@@H](F)C1` [Example 2-31, (E)-7-(((3S,4R)-3-fluoro-1-methylpiperidin-4-yl)amino)-3-(2,2,2-trifluoroethyl)benzo[b]thiophene-2-carbaldehyde O-((6-oxo-1,6-dihydropyridin-2-yl)methyl) oxime]: the EC50 was less than 100 nM.

With `CN1CC[C@@H](Nc2cccc3c(CC(F)(F)F)c(/C=C/C(O)c4ccncc4)sc23)[C@@H](F)C1` (stereo partly drawn) [Example 5-9, (E)-3-(7-(((3S,4R)-3-fluoro-1-methylpiperidin-4-yl)amino)-3-(2,2,2-trifluoroethyl)benzo[b]thiophen-2-yl)-1-(pyridin-4-yl)prop-2-en-1-ol], the EC50 fell in the range of 100 to 1000 nM.

Regarding `COc1cc(S(C)(=O)=O)ccc1NC/C=C/c1sc2c(N[C@@H]3CCN(C)C[C@@H]3F)cccc2c1CC(F)(F)F` [Example 7-2, (3S,4R)-3-fluoro-N-(2-((E)-3-((2-methoxy-4-(methylsulfonyl)phenyl)amino)prop-1-en-1-yl)-3-(2,2,2-trifluoroethyl)benzo[b]thiophen-7-yl)-1-methylpiperidin-4-amine], the EC50 was less than 100 nM.

As to `CN1CC[C@@H](Nc2cccc3c(CC(F)(F)F)c(/C=C/CNC(=O)c4cnn(C)c4)sc23)[C@@H](F)C1` [Example 6-2, N-((E)-3-(7-(((3S,4R)-3-fluoro-1-methylpiperidin-4-yl)amino)-3-(2,2,2-trifluoroethyl)benzo[b]thiophen-2-yl)allyl)-1-methyl-1H-pyrazole-4-carboxamide], the EC50 lay within 100 to 1000 nM.

As for `CN1CC[C@@H](Nc2cccc3c2cc(/C=N/OCC(=O)Nc2ccccc2)n3CC(F)(F)F)[C@@H](F)C1` [Example 2-8, 2-((((E)-(4-(((3S,4R)-3-fluoro-1-methylpiperidin-4-yl)amino)-1-(2,2,2-trifluoroethyl)-1H-indol-2-yl)methylene)amino)oxy)-N-phenylacetamide], the EC50 fell in the range of 100 to 1000 nM.

With `COCC(O)CO/N=C/c1sc2c(N[C@@H]3CNC[C@@H]3F)cccc2c1CC(F)(F)F` (stereo partly drawn) [Example 1-10, (E)-7-(((3R,4S)-4-fluoropyrrolidin-3-yl)amino)-3-(2,2,2-trifluoroethyl)benzo[b]thiophene-2-carbaldehyde O-(2-hydroxy-3-methoxypropyl) oxime], the EC50 was 100 to 1000 nM.

Take `OCC1(O/N=C/c2sc3c(N[C@@H]4CNC[C@@H]4F)cccc3c2CC(F)(F)F)CCCCC1` [Example 1-30, (E)-7-(((3R,4S)-4-fluoropyrrolidin-3-yl)amino)-3-(2,2,2-trifluoroethyl)benzo[b]thiophene-2-carbaldehyde O-(1-(hydroxymethyl)cyclohexyl) oxime]: the EC50 was more than 1000 nM.

With `CC[C@@H](O)CO/N=C/c1sc2c(N[C@@H]3CNC[C@@H]3F)cccc2c1CC(F)(F)F` [Example 1-1, (E)-7-(((3R,4S)-4-fluoropyrrolidin-3-yl)amino)-3-(2,2,2-trifluoroethyl)benzo[b]thiophene-2-carbaldehyde O-((R)-2-hydroxybutyl) oxime], the EC50 fell in the range of 100 to 1000 nM.

For `CN1CC[C@@H](Nc2cccc3c2cc(/C=N\OCc2ccccc2)n3CC(F)(F)F)[C@@H](F)C1` [Example 2-4, (Z)-4-(((3S,4R)-3-fluoro-1-methylpiperidin-4-yl)amino)-1-(2,2,2-trifluoroethyl)-1H-indole-2-carbaldehyde O-benzyl oxime], the EC50 is more than 1000 nM.

Regarding `CN1CC[C@@H](Nc2cccc3c2cc(/C=N/OCc2ccccc2)n3CC(F)(F)F)[C@@H](F)C1` [Example 2-3, (E)-4-(((3S,4R)-3-fluoro-1-methylpiperidin-4-yl)amino)-1-(2,2,2-trifluoroethyl)-1H-indole-2-carbaldehyde O-benzyl oxime], the EC50 was more than 1000 nM.

`F[C@H]1CNC[C@H]1Nc1cccc2c(CC(F)(F)F)c(/C=N/OCc3cccnc3)sc12` [Example 3-2, (E)-7-(((3R,4S)-4-fluoropyrrolidin-3-yl)amino)-3-(2,2,2-trifluoroethyl)benzo[b]thiophene-2-carbaldehyde O-pyridin-3-ylmethyl oxime]: the EC50 is less than 100 nM.

For the compound `F[C@H]1CNCC[C@H]1Nc1cccc2c(CC(F)(F)F)c(/C=N/OCC3CC3)sc12` [Example 2-10, (E)-7-(((3S,4R)-3-fluoropiperidin-4-yl)amino)-3-(2,2,2-trifluoroethyl)benzo[b]thiophene-2-carbaldehyde O-cyclopropylmethyl oxime], the EC50 fell in the range of 100 to 1000 nM.

Take `OCC1(O/N=C/c2sc3c(N[C@@H]4CNC[C@@H]4F)cccc3c2CC(F)(F)F)CCC1` [Example 1-19, (E)-7-(((3R,4S)-4-fluoropyrrolidin-3-yl)amino)-3-(2,2,2-trifluoroethyl)benzo[b]thiophene-2-carbaldehyde O-(1-(hydroxymethyl)cyclobutyl) oxime]: the EC50 fell in the range of 100 to 1000 nM.

For the compound `Cn1cnc(CO/N=C/c2sc3c(N[C@@H]4CNC[C@@H]4F)cccc3c2CC(F)(F)F)n1` [Example 3-4, (E)-7-(((3R,4S)-4-fluoropyrrolidin-3-yl)amino)-3-(2,2,2-trifluoroethyl)benzo[b]thiophene-2-carbaldehyde O-((1-methyl-1H-1,2,4-triazol-3-yl)methyl) oxime], the EC50 is 100 to 1000 nM.

As for `F[C@H]1CNCC[C@H]1Nc1cccc2c(CC(F)(F)F)c(/C=N\OCC3CC3)sc12` [Example 2-11, (Z)-7-(((3S,4R)-3-fluoropiperidin-4-yl)amino)-3-(2,2,2-trifluoroethyl)benzo[b]thiophene-2-carbaldehyde O-cyclopropylmethyl oxime], the EC50 lay in the range of 100 to 1000 nM.

As to `CC[C@@H](CO)O/N=C/c1sc2c(N[C@@H]3CNC[C@@H]3F)cccc2c1CC(F)(F)F` [Example 1-2, (E)-7-(((3R,4S)-4-fluoropyrrolidin-3-yl)amino)-3-(2,2,2-trifluoroethyl)benzo[b]thiophene-2-carbaldehyde O-((S)-1-hydroxybutan-2-yl) oxime], the EC50 was more than 1000 nM.

As for `CN1CC[C@@H](Nc2cccc3c2cc(/C=N/OCc2nc4ccccc4[nH]2)n3CC(F)(F)F)[C@@H](F)C1` [Example 2-9, (E)-4-(((3S,4R)-3-fluoro-1-methylpiperidin-4-yl)amino)-1-(2,2,2-trifluoroethyl)-1H-indole-2-carbaldehyde O-((1H-benzo[d]imidazol-2-yl)methyl)oxime], the EC50 was 100 to 1000 nM.
